Entries after “also recorded” stand apart in the source; their conditions may differ.
What was measured:
LTD4 receptor [1] = experiment: Inhibition of LTD4-induced IP3 formation in mesangial cells; format: cell-based, rat
Experimental: Mesangial Cell Culture: Rat mesangial cells were isolated and cultured as described previously (Harris, R. C., et al., J. Clin. Invest. 82:1028-1039(1988). Briefly, kidneys were exicesed from two young Sprague-Dawly rats under sterile conditions, and the cortices removed, minced, and washed several times in Hank's Balanced Salt Solution, containing 10 mM HEPES pH 7.4, amphotericin (0.25 μg/ml), and gentamicin (50 μg/ml). The tissue was then passed through consecutive sterilized stainless mesh filters with pore sizes of 212 μm, 150 μm, and then onto the final mesh of 75 μm. The isolated glomeruli were harvested from the surface of the 75 μm. The isolated glomeruli were harvested from the surface of the 75 μm filter and washed twisce with the Hank's Media. The glomeruli were suspended in RPMI 1640 Medium with 15% Fetal Bovine Serum (Givco), penicillin (100 μ/ml) and streptomycin (100 μg/ml) (Gibco), plated into 100 mm cell culture petri dishes, and incubated at 37° C. in a humidified atmosphere of 95% air and […] 5% CO2. Mesangial cell colonies were subcultured in 60 mm culture dishes, and experiments were carried out in cells from passages 2 to 12. The criteria used to establish the identify of mesangial cells were as described previously (Harris, R. C., et al., J. Clin. Invest. 82:1028-1039 (1988)). Cells were routinely grown in RPMI-1640, supplemented with 20% fetal calf serum, penicillin 100 μ/ml, and streptomycin 100 μg/ml. […] All eicosanoids were stored under argon at -70° C. in methanol and their purity and quantity verified periodically by ultraviolet scanning and high pressure liquid chromatography (Serhan, C. N. et al., J. Biol. Chem. 261:16340 (1986)).
(§1) To label mesangial cells with [^3 H]-Inositol, cells grown to confluence in 60 mm culture dishes (10^6 cells/dish) were cultured in RPMI, supplemented with 10% dialyzed fetal calf serum and [^3 H]-inositol (1 μCi/ml) in a total incubation volume of 5 ml.
Reactions were terminated by the addition of cold 10% trichloroacetic acid (TCA), the supernatants subjected to ether extraction, and the aqueous phase titrated to neutral pH using 0.1 M Tris base. [^3 H]-IP1, [^3 H]-IP2, and [^3 H]-IP3 in the aqueous phase were separated and quantitated by anion exchange column chromatography, using the method of Berridge et al. (Berridge, M. J., Biochem. J. 220:345-360 (1984)). To ensure the reliability of the separation technique, the same methods for extraction and separation were applied to known amounts of [^3 H]-IP1, [^3 H]IP2, and [^3 H]-IP3 standards (New England Nuclear) mixed in a ratio of 3:2:1, respectively, and subjected to separation by HPLC. The latter was performed using established methodology described previously (Cunha-Melo, J. R., et al., J. Biol. Chem. 262:11455-11463 (1987)).

LTD4 receptor [2] = experiment: Inhibition of LXA4-induced IP3 formation in mesangial cells; format: cell-based, rat
Experimental: Mesangial Cell Culture: Rat mesangial cells were isolated and cultured as described previously (Harris, R. C., et al., J. Clin. Invest. 82:1028-1039(1988). Briefly, kidneys were exicesed from two young Sprague-Dawly rats under sterile conditions, and the cortices removed, minced, and washed several times in Hank's Balanced Salt Solution, containing 10 mM HEPES pH 7.4, amphotericin (0.25 μg/ml), and gentamicin (50 μg/ml). The tissue was then passed through consecutive sterilized stainless mesh filters with pore sizes of 212 μm, 150 μm, and then onto the final mesh of 75 μm. The isolated glomeruli were harvested from the surface of the 75 μm. […] All eicosanoids were stored under argon at -70° C. in methanol and their purity and quantity verified periodically by ultraviolet scanning and high pressure liquid chromatography (Serhan, C. N. et al., J. Biol. Chem. 261:16340 (1986)). […]
Reactions were terminated by the addition of cold 10% trichloroacetic acid (TCA), the supernatants subjected to ether extraction, and the aqueous phase titrated to neutral pH using 0.1 M Tris base. [^3 H]-IP1, [^3 H]-IP2, and [^3 H]-IP3 in the aqueous phase were separated and quantitated by anion exchange column chromatography, using the method of Berridge et al. (Berridge, M. J., Biochem. J. 220:345-360 (1984)). […]

LTD4/ LTE4 receptors = settings: in vivo and in vitro; cited from earlier work
[3] = target: T1, mesangial cell LTD4 receptor (Rattus norvegicus, UniProt Q924T8); set-up: endogenous in cells; host or cells: primary glomerular mesangial cells of young Sprague-Dawley rats, passages 2 to 12; settings: other studies of the inventors; cited from earlier work
T1 sequence (Q924T8 1-339): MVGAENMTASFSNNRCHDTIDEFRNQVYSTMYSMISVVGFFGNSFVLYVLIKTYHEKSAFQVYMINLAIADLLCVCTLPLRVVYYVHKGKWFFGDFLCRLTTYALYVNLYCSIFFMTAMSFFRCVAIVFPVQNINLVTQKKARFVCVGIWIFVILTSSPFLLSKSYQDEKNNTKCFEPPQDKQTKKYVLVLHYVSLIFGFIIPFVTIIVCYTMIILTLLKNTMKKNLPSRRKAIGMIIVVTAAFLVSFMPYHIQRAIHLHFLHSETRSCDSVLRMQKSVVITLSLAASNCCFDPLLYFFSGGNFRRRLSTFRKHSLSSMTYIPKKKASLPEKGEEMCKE

[4] = target: T1, mesangial cell LTD4 receptor; settings: even at a 1000-fold excess concentration
Experimental: Mesangial Cell Culture: Rat mesangial cells were isolated and cultured as described previously (Harris, R. C., et al., J. Clin. Invest. 82:1028-1039(1988). Briefly, kidneys were exicesed from two young Sprague-Dawly rats under sterile conditions, and the cortices removed, minced, and washed several times in Hank's Balanced Salt Solution, containing 10 mM HEPES pH 7.4, amphotericin (0.25 μg/ml), and gentamicin (50 μg/ml). The tissue was then passed through consecutive sterilized stainless mesh filters with pore sizes of 212 μm, 150 μm, and then onto the final mesh of 75 μm. The isolated glomeruli were harvested from the surface of the 75 μm. The isolated glomeruli were harvested from the surface of the 75 μm filter and washed twisce with the Hank's Media. The glomeruli were suspended in RPMI 1640 Medium with 15% Fetal Bovine Serum (Givco), penicillin (100 μ/ml) and streptomycin (100 μg/ml) (Gibco), plated into 100 mm cell culture petri dishes, and incubated at 37° C. in a humidified atmosphere of 95% air and 5% air and 5% CO2. Mesangial cell colonies were subcultured in 60 mm culture dishes, and experiments were carried out in cells from passages 2 to 12. […] Cells were routinely grown in RPMI-1640, supplemented with 20% fetal calf serum, penicillin 100 μ/ml, and streptomycin 100 μg/ml.
Binding studies were routinely performed at 4° C. […] The cells were then dissolved with 1.0 ml of 1.0 N NaOH, neutralized with HCl, dissolved in 10 ml of Aquasol (New England Nuclear, Boston, MA), and the bound radioactivity was determined using a scintillation counter (Beckman Instruments). […] Cell density was determined by counting cells from replicate wells, using a Coulter Counter ZBi (Coulter Electronics, Inc., Hialeah, Fla.).

LTD4 receptor [5] = settings: cited from earlier work
rat mesangial cells = experiment: IP3 formation ([3H]-inositol labeled mesangial cells) in response to LTD4 or LXA4; format: cell-based; settings: Mesangial cell, read-out: increase in [3H]-IP3 counts over controls
Description: (§2) Statistical: ANOVA with Bonferroni modification for multiple pre-planned comparisons was used, within each group and between groups, to compare the changes in various whole kidney and microcirculatory indices which occurred from one period to another. In phosphoinositide generation studies, increases in [^3 H]-IP3 CPMs in agonist-treated cells were compared to vehicle-treated controls using upaired students t-test. Differences were considered significant at a p value ≤0.05. All values are reported as means ± SEM.
The isolated glomeruli were harvested from the surface of the 75 μm filter and washed twisce with the Hank's Media. […] Mesangial cell colonies were subcultured in 60 mm culture dishes, and experiments were carried out in cells from passages 2 to 12.
as §1
Reactions were terminated by the addition of cold 10% trichloroacetic acid (TCA), the supernatants subjected to ether extraction, and the aqueous phase titrated to neutral pH using 0.1 M Tris base. […] To ensure the reliability of the separation technique, the same methods for extraction and separation were applied to known amounts of [^3 H]-IP1, [^3 H]IP2, and [^3 H]-IP3 standards (New England Nuclear) mixed in a ratio of 3:2:1, respectively, and subjected to separation by HPLC.

[6] = Renal function in vivo in anesthetized rats (AP, Hct, RPF, GFR) during intrarenal arterial infusion; set-up: species or system male Munich-Wistar rats; settings: for Mean percent fall in RPF / Mean percent fall in GFR: without LXA4
Description: as §2
Inulin and para-aminohippurate (PAH) clearances Were used to measure GFR and effective RPF. A needle was placed at the take-off of the left renal artery through which a maintenance infusion of 0.9% NaCl at a rate of 0.05 ml/min was initiated. […] Two experimental groups
Group I (n=14). First period: Clearances were performed during vehicle infusion.
Group II (n=12). First period: Clearances were performed during vehicle infusion.

[7] = intra-renal arterial LTD4 1 μg/kg/min; cited from earlier work
renal arterioles = settings: rat, in vivo; cited from earlier work
mesangial cells = settings: cited from earlier work
HL-60 myeloid cells = settings: DMSO-differentiated HL-60 cells; cited from earlier work
[8] = 100-fold concentrations of SKF 104353
[9] = Group I, period 2, A: LTD4 0.5 μg/kg/min, n=4
[10] = Group I, period 2, B: LTD4 7 μg/kg/min, n=3
[11] = Group I, period 2, C: LTD4 14 μg/kg/min, n=3
[12] = Group I, period 2, D: LTD4 20 μg/kg/min, n=4
[13] = LTD4 7.0 μg/kg/min, p<0.05 vs baseline
[14] = LTD4 14.0 μg/kg/min, p<0.05 vs baseline
[15] = LTD4 20.0 μg/kg/min, p<0.05 vs baseline

Question: With `O=C(O)CCS[C@H](c1ccccc1CCCCCCCCc1ccccc1)[C@@H](O)C(=O)O` [SKF 104353] as the molecule, how does the “Inhibition of IP3 formation in response to LTD4 (FIG. 2)” value (LTD4 receptor [1]; [8]) read?
Answer: complete abolition

Question: What about the “Inhibition of LTD4-induced stimulation of [3H]-IP3 formation” value (LTD4 receptor [1]; 100-fold excess over ligand, LTD4 10 and 50 nM (n=3 each)) of the same molecule?
Answer: total abrogation

Question: And the “Inhibition of IP3 formation in response to LXA4 (FIG. 2)” value (LTD4 receptor [2]; [8])?
Answer: complete abolition

Question: And the “Inhibition of LXA4-induced IP3 formation” value (LTD4 receptor [2]; SKF 104353 100 nM (n=3))?
Answer: abrogated; also recorded: total abrogation

Question: And the Agonist activity (LTD4/ LTE4 receptors)?
Answer: devoid of agonist activity

Question: And the “Inhibition of [3H]-LTD4 binding to its mesangial cell binding site” value [3]?
Answer: inhibit [^3 H]-LTD4 binding

Question: Which “Competition for [3H]-LTD4 at excess concentration” value [4] does the source give for `CCCCC[C@H](O)/C=C/C=C\C=C\C=C\[C@H](O)[C@@H](O)CCCC(=O)O` [6S-LXA4, 5S,6S,15S,trihydroxy-7,9,13-trans-11-cis-eicosatetraenoic acid, reference compound] here?
Answer: filed to compete for [^3 H]-LTD4

Question: With `CCCc1c(OCC(O)COc2ccc3c(=O)cc(C(=O)O)oc3c2CCC)ccc(C(C)=O)c1O` (stereo not drawn) [FPL-55712] as the molecule, how does the Duration of action (LTD4 receptor [5]) read?
Answer: short-acting

Question: What does the source list for `CCCCC/C=C\C\C=C/C=C/C=C/[C@@H](SC[C@H](N)C(=O)NCC(=O)O)[C@@H](O)CCCC(=O)O` [LTD4, reference compound]?
Answer: activation at 0.01 µM (rat mesangial cells): 146 ± 20%; activation at 0.05 µM (rat mesangial cells): 106 ± 13%; GFR and RPF change (in words) ([6]; Group I, LTD4 0.5-20.0 μg/kg/min): dose-dependent reductions; AP [6, 9]: 127 ± 9 mmHg; GFR [6, 9]: 0.81 ± 0.11 mL/min; Hct [6, 9]: 48.3 ± 1.2 Vol./dl; RPF [6, 9]: 3.41 ± 0.50 mL/min; AP [6, 10]: 124 ± 6 mmHg; GFR [6, 10]: 0.84 ± 0.15 mL/min; Hct [6, 10]: 53.0 ± 1.5 Vol./dl; RPF [6, 10]: 2.76 ± 0.59 mL/min; AP [6, 11]: 148 ± 5 mmHg; GFR [6, 11]: 0.32 ± 0.10 mL/min; Hct [6, 11]: 59.2 ± 2.2 Vol./dl; RPF [6, 11]: 1.51 ± 0.44 mL/min; AP [6, 12]: 128 ± 4 mmHg; GFR [6, 12]: 0.34 ± 0.80 mL/min; Hct [6, 12]: 55.0 ± 1.8 Vol./dl; RPF [6, 12]: 1.20 ± 0.15 mL/min; Mean percent fall in RPF ([6]; LTD4 0.5 μg/kg/min): 24%; Mean percent fall in GFR ([6]; LTD4 0.5 μg/kg/min, p<0.05 vs baseline): 27%; Mean percent fall in GFR [6, 13]: 25%; Mean percent fall in RPF [6, 13]: 40%; Mean percent fall in GFR [6, 14]: 70%; Mean percent fall in RPF [6, 14]: 65%; Mean percent fall in GFR [6, 15]: 73%; Mean percent fall in RPF [6, 15]: 70%; Systemic hemodynamic alterations [7]: elevation in systemic arterial pressure and a progressive loss of plasma volume; Kf and GFR in vivo (renal arterioles): markedly reduces; Contraction of mesangial cells in culture (mesangial cells): contracts mesangial cells in culture; Intracellular Ca2+ concentrations (HL-60 myeloid cells): increase intracellular Ca^2+ concentrations
